The source of these data is US20230219962A1, “PYRAZOLO[4,3-d]PYRIMIDINE DERIVATIVES AND METHODS OF USE THEREOF FOR THE TREATMENT OF CELLULAR PROLIFERATIVE DISORDERS” (Merck Sharp & Dohme LLC, priority 2020, published 2023).

SMILES strings stand for the structures.

For one test, the target named is T1, hTLR8 (Homo sapiens, UniProt Q9NR97).
T1 construct: host or cells: HEK-Blue hTLR8 cells (HEK293-derived, own knowledge)
T1 sequence (Q9NR97 27-1041): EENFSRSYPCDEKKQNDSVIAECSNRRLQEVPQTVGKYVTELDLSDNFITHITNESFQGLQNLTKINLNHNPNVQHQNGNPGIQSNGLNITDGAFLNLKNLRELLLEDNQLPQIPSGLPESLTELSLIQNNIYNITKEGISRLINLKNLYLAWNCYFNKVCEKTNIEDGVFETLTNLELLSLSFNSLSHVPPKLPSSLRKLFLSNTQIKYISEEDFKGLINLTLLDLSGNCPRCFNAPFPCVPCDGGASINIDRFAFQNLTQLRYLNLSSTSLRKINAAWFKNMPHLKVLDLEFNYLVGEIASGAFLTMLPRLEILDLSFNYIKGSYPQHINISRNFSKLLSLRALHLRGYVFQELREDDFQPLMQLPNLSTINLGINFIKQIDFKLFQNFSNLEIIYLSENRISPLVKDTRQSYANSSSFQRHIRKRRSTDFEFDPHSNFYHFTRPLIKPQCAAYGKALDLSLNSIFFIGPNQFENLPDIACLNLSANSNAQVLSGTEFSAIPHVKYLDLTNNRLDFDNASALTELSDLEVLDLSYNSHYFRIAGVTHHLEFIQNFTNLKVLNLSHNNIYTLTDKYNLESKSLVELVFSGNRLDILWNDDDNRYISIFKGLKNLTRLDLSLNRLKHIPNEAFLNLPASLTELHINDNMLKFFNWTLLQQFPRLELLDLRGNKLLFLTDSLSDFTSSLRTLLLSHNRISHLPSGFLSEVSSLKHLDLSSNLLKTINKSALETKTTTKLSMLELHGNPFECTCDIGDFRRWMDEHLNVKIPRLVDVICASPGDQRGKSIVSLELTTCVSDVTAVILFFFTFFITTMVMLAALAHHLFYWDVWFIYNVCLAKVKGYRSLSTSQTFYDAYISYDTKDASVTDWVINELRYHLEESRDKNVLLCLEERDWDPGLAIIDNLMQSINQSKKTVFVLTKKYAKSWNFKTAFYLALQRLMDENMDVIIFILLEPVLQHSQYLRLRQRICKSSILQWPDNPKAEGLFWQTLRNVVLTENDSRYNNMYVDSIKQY
Description: Human TLR8 Reporter Assay. In kind it is cell-based. The following applies: HEK-Blue hTLR8 cells, 16 hours, normalized to tl8-506 (1 μM) and DMSO. As to the method:
(§1) HEK-Blue™ hTLR8 cells (Invivogen, San Diego, Calif.) were maintained at 37° C./5% CO2/90% relative humidity in Dulbecco's Modified Eagle's Medium with 10% fetal bovine serum, 100 units/mL penicillin, 100 μg/mL streptomycin, 100 μg/mL normocin, 10 μg/mL blasticidin, and 100 μg/mL zeocin. HEK-Blue™ hTLR8 cells were maintained at 10-90% confluence and used before passage 20. For this assay, test compounds were dissolved in DMSO, and 10-point serial 3-fold dilution series in DMSO were prepared in Echo Qualified 384-well Polypropylene Microplates (Labcyte, San Jose, Calif.). Assay plates (384-well flat, clear bottom, black polystyrene TC-treated microtiter plates; Corning, Corning, N.Y.) were prepared by dispensing 150 nL of test compounds, high control (tl8-506; Invivogen, San Diego, Calif.), and low control (DMSO) by ECHO acoustic dispenser (Labcyte, San Jose Calif.) followed by addition of 5 μL of HEK-Blue™ Detection assay media (Invivogen, San Diego, Calif.). HEK-Blue™ hTLR8 cells in HEK-Blue™ Detection assay media (20,000 cells per well in 45 μL of media) were added to the assay plate and incubated for 16 hours at 37° C./5% CO2/90% relative humidity. For detection, assay plates were removed from the incubator, allowed to cool to ambient temperature, centrifuged at 200×g for 1 minutes, and read with an EnSpire Multimode Plate Reader (Perkin Elmer, Waltham, Mass.) for absorbance at 620 nm. Test compound effects were normalized to the window defined by the controls, tl8-506 (1 μM), and DMSO. Calculated % effects were fit using a 4-parameter algorithm, and EC50 was reported.
(In general: A reporter such as luciferase makes a cellular process visible.)

Another test concerns the target T2, hTLR7 (Homo sapiens, UniProt Q9NYK1).
T2 construct: host or cells: HEK-Blue hTLR7 cells (HEK293-derived, own knowledge)
T2 sequence (Q9NYK1 27-1049): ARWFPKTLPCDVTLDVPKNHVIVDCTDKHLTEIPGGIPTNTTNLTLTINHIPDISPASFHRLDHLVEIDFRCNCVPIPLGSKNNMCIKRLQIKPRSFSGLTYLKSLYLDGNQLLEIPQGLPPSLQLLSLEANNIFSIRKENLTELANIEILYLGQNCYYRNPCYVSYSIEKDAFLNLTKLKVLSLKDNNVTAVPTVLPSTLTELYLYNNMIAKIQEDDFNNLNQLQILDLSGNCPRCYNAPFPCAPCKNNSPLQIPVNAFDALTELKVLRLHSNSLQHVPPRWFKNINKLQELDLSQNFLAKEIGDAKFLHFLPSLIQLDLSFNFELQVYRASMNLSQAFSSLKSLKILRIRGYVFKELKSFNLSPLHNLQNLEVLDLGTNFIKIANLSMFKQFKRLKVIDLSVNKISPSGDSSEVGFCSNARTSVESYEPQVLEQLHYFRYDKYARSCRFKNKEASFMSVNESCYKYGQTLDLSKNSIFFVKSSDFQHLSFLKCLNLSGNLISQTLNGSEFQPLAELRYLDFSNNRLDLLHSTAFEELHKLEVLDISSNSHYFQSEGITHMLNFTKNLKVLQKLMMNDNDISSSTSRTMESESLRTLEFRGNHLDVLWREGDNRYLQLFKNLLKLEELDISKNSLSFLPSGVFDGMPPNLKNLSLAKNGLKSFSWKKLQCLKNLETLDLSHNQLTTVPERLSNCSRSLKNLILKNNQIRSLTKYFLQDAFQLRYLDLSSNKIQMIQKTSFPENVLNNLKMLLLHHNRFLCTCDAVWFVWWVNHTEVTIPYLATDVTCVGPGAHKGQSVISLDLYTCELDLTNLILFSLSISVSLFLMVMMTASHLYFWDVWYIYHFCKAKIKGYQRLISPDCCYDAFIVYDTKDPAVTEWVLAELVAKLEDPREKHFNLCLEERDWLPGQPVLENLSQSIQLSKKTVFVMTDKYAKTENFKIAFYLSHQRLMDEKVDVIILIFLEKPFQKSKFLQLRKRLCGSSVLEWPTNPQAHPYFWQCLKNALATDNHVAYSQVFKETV
Description: Human TLR7 Reporter Assay. In kind it is cell-based. The conditions noted are these: HEK-Blue hTLR7 cells, 16 hours, normalized to CL097 (6 μM) and DMSO. As to the method:
as §1, with “hTLR7” for “hTLR8”, “(CL097;” for “(tl8-506;”, “CL097 (6” for “tl8-506 (1”

What is called EC50 is the midpoint of the concentration-response curve. A lower EC50 goes with higher potency in that assay. On to `CCCCNc1nc(N)nc2cn(Cc3c(OC)ccc(N)c3OC)nc12` [Compound 77], for which the EC50 stood at 1.53 µM on hTLR8 and 0.49 µM on hTLR7.
In the same order, the values of `CCCCNc1nc(N)nc2cn(Cc3c(OC)ccc(CN4CCNCC4)c3OC)nc12` [Compound 78] are 2.56 µM and 2.65 µM.
Turning to `CCCCNc1nc(N)nc2cn(Cc3c(OC)ccc(CCN)c3OC)nc12` [Compound 79], the results for the EC50 on hTLR8 and on hTLR7 were 1.81 µM and 4.45 µM, respectively.
As to `CCCCNc1nc(N)nc2cn(Cc3c(OC)cc(CN4CCN(C(=O)C5CCC(CN6C(=O)CC(SC[C@H](N)C(=O)O)C6=O)CC5)CC4)cc3OC)nc12` (stereo partly shown) [Compound 89], the figures for the EC50 on hTLR8 and at hTLR7 were 24.6 µM and 2.62 µM, respectively.
As for `CCCCNc1nc(N)nc2cn(Cc3c(OC)ccc(CN4CCN(C(=O)C5CCC(CN6C(=O)CC(SC[C@H](N)C(=O)O)C6=O)CC5)CC4)c3OC)nc12` (stereo partly shown) [Compound 90], the half-maximal effective concentration (EC50) on hTLR8 turned out to be 15.1 µM; on hTLR7, 2.21 µM.
In the same order, the values of `CCCC(C)Nc1nc(N)nc2cn(Cc3c(OC)cccc3OC)nc12` (stereo not shown) [Compound 91] are 0.291 µM and 0.0358 µM.
In the same order, the values of `CCCCNc1nc(N)nc2cn(Cc3c(OC)cc(CNC(=O)C4CCC(CN5C(=O)CC(SC[C@H](N)C(=O)O)C5=O)CC4)cc3OC)nc12` (stereo partly shown) [Compound 92] are 11.6 µM and 2.26 µM.
In the same order, the values of `CCCCNc1nc(N)nc2cn(Cc3ccncc3OC)nc12` [Compound 93] are 0.611 µM and 0.12 µM.
Consider `CCCCNc1nc(N)nc2cn(Cc3ncc(CN4CCNCC4)cc3OC)nc12` [Compound 94], for which the EC50 at hTLR8 was determined as 4.96 µM; at hTLR7, 2.04 µM.
For the compound `CCCCNc1nc(N)nc2cn(Cc3c(OC)ccc(CN4C(=O)C=CC4=O)c3OC)nc12` [Compound 95], the results for the EC50 on hTLR8 and at hTLR7 were 4.33 µM and 3.35 µM, respectively.
In the same order, the values of `CCCCNc1nc(N)nc2cn(Cc3c(OC)cc(CNC(=O)CCN4C(=O)C=CC4=O)cc3OC)nc12` [Compound 96] are 7.84 µM and 1.97 µM.
On to `CCCCNc1nc(N)nc2cn(Cc3ccccn3)nc12` [Compound 97], for which the EC50 on hTLR8 was 2.37 µM; on hTLR7, 0.265 µM.
As for `CCCCNc1nc(N)nc2cn(Cc3c(OC)cc(N4C(=O)C=CC4=O)cc3OC)nc12` [Compound 98], the EC50 on hTLR8 was greater than 9.98 µM; on hTLR7, 0.414 µM.
In the same order, the values of `CCCCNc1nc(N)nc2cn(Cc3ncc(N4CCNCC4)cc3OC)nc12` [Compound 99] are 1.38 µM and 0.633 µM.
Turning to `CCCCNc1nc(N)nc2cn(Cc3cccnc3OC)nc12` [Compound 100], the EC50 at hTLR8 is 0.499 µM; on hTLR7, 0.0744 µM.
In the same order, the values of `CCCCNc1nc(N)nc2cn(Cc3cnccc3OC)nc12` [Compound 101] are 1.26 µM and 0.153 µM.
In the same order, the values of `CCCCNc1nc(N)nc2cn(C(C)c3ccccc3OC)nc12` (stereo not shown) [Compound 102] are greater than 9.98 µM and 1.41 µM.
Taken in the same sequence, the figures for `CCCCNc1nc(N)nc2cn(Cc3c(OC)cc(CN4C(=O)C=CC4=O)cc3OC)nc12` [Compound 103] were 0.422 µM and 0.0979 µM.
In the case of `CCCCNc1nc(N)nc2cn(Cc3ccc(CN4C(=O)C=CC4=O)cc3OC)nc12` [Compound 104], the EC50 turned out to be 2.04 µM on hTLR8 and 0.292 µM at hTLR7.
For the compound `CCCCNc1nc(N)nc2cn(Cc3ccc(CN4CCN(C(=O)CN5C(=O)C=CC5=O)CC4)cc3OC)nc12` [Compound 105], the EC50 stood at 6.4 µM at hTLR8 and 1.79 µM on hTLR7.
In the same order, the values of `CCCCNc1nc(N)nc2cn(Cc3cncnc3OC)nc12` [Compound 106] are 1.7 µM and 0.311 µM.
Taken in the same sequence, the figures for `CCC[C@H](CO)Nc1nc(N)nc2cn(Cc3c(OC)cccc3OC)nc12` [Compound 107] were 3.02 µM and 0.213 µM.
Consider `CCC[C@@H](CO)Nc1nc(N)nc2cn(Cc3c(OC)cccc3OC)nc12` [Compound 108], for which the EC50 was determined as 0.116 µM at hTLR8 and 0.0293 µM at hTLR7.
Taken in the same sequence, the figures for `CCCCNc1nc(N)nc2cn(Cc3c(OC)cc(CNC)cc3OC)nc12` [Compound 109] were 0.0998 µM and 0.0919 µM.
In the same order, the values of `CCCCNc1nc(N)nc2cn(Cc3ncc(CN4C(=O)C=CC4=O)cc3OC)nc12` [Compound 110] are 3.68 µM and 0.553 µM.
In the same order, the values of `CCCCNc1nc(N)nc2cn(Cc3nccnc3OC)nc12` [Compound 111] are 0.597 µM and 0.0818 µM.
